Key:
[1] = molecular target: KRAS G12C (Homo sapiens, UniProt P01116, G12C); assay: GDP-GTP exchange assay (KRAS_G12C exchange); type: biochemical; details: bodipy-GDP loaded KRAS G12C 2.5 nM, SOS1 150 nM, GppNHp; 2 hours pre-incubation, 2 hours reaction; read-out: G12C_exchange
Method in brief: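 Fluorescence exchange of bodipy-GDP for GppNHp, SOS1-driven, read at 485/520 nm; IC50 from four-parameter variable-slope fit. Both mutants used 2.5 nM final labelled protein and a 2 h compound pre-incubation. G12C reaction had 500 uM GppNHp and 150 nM SOS1 for 2 h; G12D ran 4 h.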

[2] = tested on: MIA PaCa-2 (KRAS G12C) cells; assay: Cellular pERK HTRF assay (KRAS_G12C pERK); type: cell-based, human; details: Homo sapiens, MIA PaCa-2, 4 hours incubation, read-out: G12C_pERK
Method in brief: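 MIA PaCa-2 cells plated overnight, then exposed to compound for 4 h at 37 °C (G12C compounds). Phospho-ERK1/2 measured in lysates by HTRF (665/620 nm) after overnight antibody incubation; IC50 from percent inhibition versus log concentration.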

KRAS G12C, sequence (P01116 1-188 isoform P01116-2 G12C): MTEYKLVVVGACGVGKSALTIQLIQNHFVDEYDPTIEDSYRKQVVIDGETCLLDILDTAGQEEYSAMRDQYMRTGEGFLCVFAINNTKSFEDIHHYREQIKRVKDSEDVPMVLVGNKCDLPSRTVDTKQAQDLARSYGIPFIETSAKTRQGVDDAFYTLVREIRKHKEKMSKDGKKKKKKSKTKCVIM

Row | SMILES | IC50 [1] [nM] | IC50 [2] [nM]
1 | COC/C=C/C(=O)N1CC[C@H](n2cnc3c(OC[C@@H]4CCCN4C)nc4c(F)c(-c5c(C)c(Cl)cc6[nH]ncc56)c(Cl)cc4c32)C[C@H]1CC#N [Example 184a, 2-((2S,4S)-4-(8-chloro-7-(6-chloro-5-methyl-1H-indazol-4-yl)-6-fluoro-4-(((S)-1-methylpyrrolidin-2-yl)methoxy)-1H-imidazo[4,5-c]quinolin-1-yl)-1-((E)-4-methoxybut-2-enoyl)piperidin-2-yl)acetonitrile] | ≤ 100 | ≤ 100
2 | COC/C=C/C(=O)N1CC[C@H](n2nnc3c(N4CC(N(C)C)C4)nc4c(F)c(-c5c(C)c(Cl)cc6[nH]ncc56)c(Cl)cc4c32)C[C@H]1CC#N [Example 186a, 2-((2S,4S)-4-(8-chloro-7-(6-chloro-5-methyl-1H-indazol-4-yl)-4-(3-(dimethylamino)azetidin-1-yl)-6-fluoro-1H-[1,2,3]triazolo[4,5-c]quinolin-1-yl)-1-((E)-4-methoxybut-2-enoyl)piperidin-2-yl)acetonitrile] | ≤ 100 | ≤ 100
3 | C=CC(=O)N1CC[C@H](n2nnc3c(OC[C@@H]4CCCN4C)nc4c(F)c(-c5ccc(F)c(C)c5)c(Cl)cc4c32)C[C@H]1CC#N [Example 187, 2-((2S,4S)-1-acryloyl-4-(8-chloro-6-fluoro-7-(4-fluoro-3-methylphenyl)-4-(((S)-1-methylpyrrolidin-2-yl)methoxy)-1H-[1,2,3]triazolo[4,5-c]quinolin-1-yl)piperidin-2-yl)acetonitrile] | ≤ 100 | ≤ 100
4 | CC#CC(=O)N1CC[C@H](n2nnc3cnc4c(F)c(-c5c(C)c(Cl)cc6[nH]ncc56)c(Cl)cc4c32)C[C@H]1CC#N [Example 188, 2-((2S,4S)-1-(but-2-ynoyl)-4-(8-chloro-7-(6-chloro-5-methyl-1H-indazol-4-yl)-6-fluoro-1H-[1,2,3]triazolo[4,5-c]quinolin-1-yl)piperidin-2-yl)acetonitrile] | ≤ 100 | ≤ 100
5 | C=C(F)C(=O)N1CC[C@H](n2nnc3c(N4CC(N(C)C)C4)nc4c(F)c(-c5c(C)c(Cl)cc6[nH]ncc56)c(Cl)cc4c32)C[C@H]1CC#N [Example 189, 2-((2S,4S)-4-(8-chloro-7-(6-chloro-5-methyl-1H-indazol-4-yl)-4-(3-(dimethylamino)azetidin-1-yl)-6-fluoro-1H-[1,2,3]triazolo[4,5-c]quinolin-1-yl)-1-(2-fluoroacryloyl)piperidin-2-yl)acetonitrile] | ≤ 100 | ≤ 100
6 | C=CC(=O)N1CC[C@H](n2nnc3c(OC[C@@H]4CCCN4C)nc4c(F)c(-c5c(C)c(Cl)cc6[nH]ncc56)c(Cl)cc4c32)C[C@H]1CC#N [Example 190a, 2-((2S,4S)-1-acryloyl-4-(8-chloro-7-(6-chloro-5-methyl-1H-indazol-4-yl)-6-fluoro-4-(((S)-1-methylpyrrolidin-2-yl)methoxy)-1H-[1,2,3]triazolo[4,5-c]quinolin-1-yl)piperidin-2-yl)acetonitrile] | ≤ 100 | ≤ 100
7 | C=C(F)C(=O)N1CC[C@H](n2nnc3c(OC[C@@H]4CCCN4C)nc4c(F)c(-c5c(C)c(Cl)cc6[nH]ncc56)c(Cl)cc4c32)C[C@H]1CC#N [Example 192, 2-((2S,4S)-4-(8-chloro-7-(6-chloro-5-methyl-1H-indazol-4-yl)-6-fluoro-4-(((S)-1-methylpyrrolidin-2-yl)methoxy)-1H-[1,2,3]triazolo[4,5-c]quinolin-1-yl)-1-(2-fluoroacryloyl)piperidin-2-yl)acetonitrile] | ≤ 100 | ≤ 100
8 | COC/C=C/C(=O)N1CC[C@H](n2nnc3c(N4CC(C)(N(C)C)C4)nc4c(F)c(-c5c(C)c(Cl)cc6[nH]ncc56)c(C)cc4c32)C[C@H]1CC#N [Example 195a, 2-((2S,4S)-4-(7-(6-chloro-5-methyl-1H-indazol-4-yl)-4-(3-(dimethylamino)-3-methylazetidin-1-yl)-6-fluoro-8-methyl-1H-[1,2,3]triazolo[4,5-c]quinolin-1-yl)-1-((E)-4-methoxybut-2-enoyl)piperidin-2-yl)acetonitrile] | ≤ 100 | ≤ 100
9 | Cc1cc2c(nc(N3CC(C)(N(C)C)C3)c3nnn([C@H]4CCN(C(=O)/C=C/CN(C)C)[C@H](CC#N)C4)c32)c(F)c1-c1c(C)c(Cl)cc2[nH]ncc12 [Example 196a, 2-((2S,4S)-4-(7-(6-chloro-5-methyl-1H-indazol-4-yl)-4-(3-(dimethylamino)-3-methylazetidin-1-yl)-6-fluoro-8-methyl-1H-[1,2,3]triazolo[4,5-c]quinolin-1-yl)-1-((E)-4-(dimethylamino)but-2-enoyl)piperidin-2-yl)acetonitrile] | ≤ 100 | ≤ 100
10 | Cc1cc2c(nc(N3CC(C)(N(C)C)C3)c3nnn([C@H]4CCN(C(=O)/C=C/C(F)F)[C@H](CC#N)C4)c32)c(F)c1-c1c(C)c(Cl)cc2[nH]ncc12 [Example 197a, 2-((2S,4S)-4-(7-(6-chloro-5-methyl-1H-indazol-4-yl)-4-(3-(dimethylamino)-3-methylazetidin-1-yl)-6-fluoro-8-methyl-1H-[1,2,3]triazolo[4,5-c]quinolin-1-yl)-1-((E)-4,4-difluorobut-2-enoyl)piperidin-2-yl)acetonitrile] | ≤ 100 | ≤ 100
11 | C=CC(=O)N1CC[C@H](n2nnc3c(OC[C@@H]4CCCN4C)nc4c(F)c(-c5ccc(F)c(C)c5)c(C)cc4c32)C[C@H]1CC#N [Example 199, 2-((2S,4S)-1-acryloyl-4-(6-fluoro-7-(4-fluoro-3-methylphenyl)-8-methyl-4-(((S)-1-methylpyrrolidin-2-yl)methoxy)-1H-[1,2,3]triazolo[4,5-c]quinolin-1-yl)piperidin-2-yl)acetonitrile] | ≤ 100 | ≤ 100
12 | Cc1c(Cl)cc2[nH]ncc2c1-c1c(Cl)cc2c(nc(N3CC(N(C)C)C3)c3nnn([C@H]4CCN(C(=O)/C=C/C(F)F)[C@H](CC#N)C4)c32)c1F [Example 201a, 2-((2S,4S)-4-(8-chloro-7-(6-chloro-5-methyl-1H-indazol-4-yl)-4-(3-(dimethylamino)azetidin-1-yl)-6-fluoro-1H-[1,2,3]triazolo[4,5-c]quinolin-1-yl)-1-((E)-4,4-difluorobut-2-enoyl)piperidin-2-yl)acetonitrile] | ≤ 100 | ≤ 100
13 | C=CC(=O)N1CC[C@H](n2nnc3c(N4CC(C)(N(C)C)C4)nc4c(F)c(-c5c(C)c(F)cc6[nH]ncc56)c(C)cc4c32)C[C@H]1CC#N [Example 202a, 2-((2S,4S)-1-acryloyl-4-(4-(3-(dimethylamino)-3-methylazetidin-1-yl)-6-fluoro-7-(6-fluoro-5-methyl-1H-indazol-4-yl)-8-methyl-1H-[1,2,3]triazolo[4,5-c]quinolin-1-yl)piperidin-2-yl)acetonitrile] | ≤ 100 | ≤ 100
14 | COC/C=C/C(=O)N1CC[C@H](n2nnc3c(N4CC(C)(N(C)C)C4)nc4c(F)c(-c5c(C)c(F)cc6[nH]ncc56)c(C)cc4c32)C[C@H]1CC#N [Example 203a, 2-((2S,4S)-4-(4-(3-(dimethylamino)-3-methylazetidin-1-yl)-6-fluoro-7-(6-fluoro-5-methyl-1H-indazol-4-yl)-8-methyl-1H-[1,2,3]triazolo[4,5-c]quinolin-1-yl)-1-((E)-4-methoxybut-2-enoyl)piperidin-2-yl)acetonitrile] | ≤ 100 | ≤ 100
15 | CC#CC(=O)N1CC[C@H](n2nnc3c(OC[C@@H]4CCCN4C)nc4c(F)c(-c5cccc(Cl)c5OC)c(CCC#N)cc4c32)C[C@H]1CC#N [Example 204, 3-(1-((2S,4S)-1-(but-2-ynoyl)-2-(cyanomethyl)piperidin-4-yl)-7-(3-chloro-2-methoxyphenyl)-6-fluoro-4-(((S)-1-methylpyrrolidin-2-yl)methoxy)-1H-[1,2,3]triazolo[4,5-c]quinolin-8-yl)propanenitrile] | ≤ 100 | ≤ 100
16 | Cc1cccc(-c2c(C)cc3c(nc(N4CC(N(C)C)C4)c4nnn([C@H]5CCN(C(=O)/C=C/CF)[C@H](CC#N)C5)c43)c2F)c1C [Example 206, 2-((2S,4S)-4-(4-(3-(dimethylamino)azetidin-1-yl)-7-(2,3-dimethylphenyl)-6-fluoro-8-methyl-1H-[1,2,3]triazolo[4,5-c]quinolin-1-yl)-1-((E)-4-fluorobut-2-enoyl)piperidin-2-yl)acetonitrile] | ≤ 100 | ≤ 100
17 | CC#CC(=O)N1CC[C@H](n2nnc3c(N4CC(N(C)C)C4)nc4c(F)c(-c5cccc(C)c5C)c(C)cc4c32)C[C@H]1CC#N [Example 207, 2-((2S,4S)-1-(but-2-ynoyl)-4-(4-(3-(dimethylamino)azetidin-1-yl)-7-(2,3-dimethylphenyl)-6-fluoro-8-methyl-1H-[1,2,3]triazolo[4,5-c]quinolin-1-yl)piperidin-2-yl)acetonitrile] | ≤ 100 | ≤ 100
18 | C=CC(=O)N1CC[C@H](n2nnc3c(N4CC(C)(N(C)C)C4)nc4c(F)c(-c5cccc(C)c5C)c(C)cc4c32)C[C@H]1CC#N [Example 208, 2-((2S,4S)-1-acryloyl-4-(4-(3-(dimethylamino)-3-methylazetidin-1-yl)-7-(2,3-dimethylphenyl)-6-fluoro-8-methyl-1H-[1,2,3]triazolo[4,5-c]quinolin-1-yl)piperidin-2-yl)acetonitrile] | ≤ 100 | ≤ 100

Source: patent US20210269434A1, “TRICYCLIC COMPOUNDS AS INHIBITORS OF KRAS” (Incyte Corporation, priority 2020, published 2021)
